# Experimental data reported in patent publication US20240335421A1, “ANETHOLE TRITHIONE FOR THE TREATMENT OF VASCULITIDES” (FRÉDÉRIC MARIN, priority 2021, published 2024).
# Key:
# [1] = system: Adult human primary ventricular cardiomyocytes; assay: Human primary cardiomyocyte contractility assay after exposure to Kawasaki patient serum; type: cell-based; settings: 12 hours exposure to KD serum + ATT 1 μM
# Method: Adult human primary ventricular cardiomyocytes were isolated from two healthy donors by AnaBios (San Diego, USA), using their CardioPRIME™ proprietary protocol.
# These isolated cardiomyocytes were exposed for 12 hours to serum obtained from Kawasaki patients in acute crisis (between 2-6 days), supplemented or not with 1 μM of ATT. In parallel, cardiomyocytes were exposed to serum from Wegener's disease patients or from convalescent Kawasaki patients, under the same conditions.
# The CardioPRIME™ protocol, run on a MultiCell platform by IonOptix, allows to measure several parameters. Upon electrical field stimulation to elicit contractions (tracked by the shape change in individual cardiomyocytes under optical bright field microscopy), the contractility transients could be analyzed for changes in contraction in the different conditions (amplitude of sarcomere shortening, peak height, maximum sarcomere departure velocity, maximum sarcomere return velocity, and decay time to 30% and 90% relaxation).
# [2] = system: IL-10 production by LPS-activated human macrophages; assay: IL-10 production by LPS-activated human macrophages (multiplex detection); type: cell-based; settings: ATT 10 μM, LPS 1 μg/mL, 48 hours, multiplex assay, FIG. 1C
# Method: (§1) CD14^+ human macrophages isolated from healthy donors were cultured with LPS (1 μg/mL) and ATT (10 μM) for 48 hours. At the end of the culture, the supernatants were collected and cytokine production was evaluated.
# (§2) Production of TNF-α was measured by ELISA. Production of TNF-α and IL-10 were measured using a multiplex detection technique.
# [3] = system: pulmonary arterial rings; assay: Relaxation of phenylephrine pre-constricted pulmonary arterial rings (organ bath); parameters: species or system Wistar rats
# Method: (§3) Intrapulmonary arteries of the first order (IPA1) of Wistar rats (male, 300 g) were divided into short tubular segments with an external diameter of ≈1.5-2 mm and used for isometric contraction measurement.
# (§4) Arterial rings were mounted in isolated organ bath systems (EMKA Technologies), containing Krebs solution (118 mM NaCl, 4.7 mM KCl, 1.2 mM MgSO4, […], 1.2 mM KH2PO4, 2.5 mM CaCl2), and 11 mM D-glucose, pH 7.4) at 37° C. and bubbled continuously with […].
# (§5) Arterial rings were stretched to a basal tension of 0.8 to 1.0 g according to their diameter. Tissues were allowed to equilibrate for 1 hour in Krebs solution and washed out every 15 minutes. A high KCl solution (80 mM) was applied in order to obtain a reference contraction used to normalize subsequent contractile responses.
# Relaxation was assessed by injecting ATT (10 μM) on phenylephrine [Phe] (30 nM; Sigma) pre-constricted pulmonary arterial rings when contraction reached its steady-state.
# The role of endothelium on ATT relaxant effect was assessed as aforementioned with L-NAME pre-incubation or CHAPS perfusion. Endothelial function was tested on each ring by examining the relaxation induced by 100 μM carbamylcholine (Sigma) on 1 μM or 30 nM Phe-induced pre-constricted pulmonary arterial rings. Passive and active mechanical properties were assessed using transducer systems, coupled to IOX2 software (v2.10.8, EMKA technologies, Paris, France) in order to facilitate data acquisition and analysis. Data were then analyzed using two-way ANOVA with Bonferroni post-tests (Prism 5 v.5.01).
# [4] = system: pulmonary arterial rings from rats with PH; assay: Chronic endothelium dysfunction by hypobaric hypoxia, in vivo minipump treatment, ex vivo 5-HT reactivity; settings: 3 weeks hypobaric hypoxia, ATT 0.7 mg/mL by abdominal minipump, no ATT in the organ bath, FIG. 4
# Method: In order to investigate the protective effects of ATT on chronic endothelium damage, rats were housed during 3 weeks in hypobaric hypoxia chambers (50 kPa or 10% O2).
# Continuous treatment was induced through a minipump placed in the abdominal cavity to deliver ATT (0.7 mg/mL) or its placebo (sulfobutylether beta-cyclodextrin) during the whole hypoxia.
# After euthanasia of the animal, pulmonary arterial rings were placed in an organ bath and the reactivity of the vessel was investigated by using cumulative concentration-response curve with 5-HT (10 nM to 100 μM). This ex vivo part of the study was conducted without any addition of ATT in the organ bath, meaning that the effect was exclusively related to the chronic in vivo treatment through the minipump.
# [5] = system: TNF-α production in LPS-activated macrophages; assay: TNF-α production by LPS-activated human macrophages (ELISA); type: cell-based; settings: ATT 10 μM, LPS 1 μg/mL, 48 hours, FIG. 1A
# Method: as §1, §2
# [6] = system: TNF-α production by LPS-activated human macrophages; assay: TNF-α production by LPS-activated human macrophages (multiplex detection); type: cell-based; settings: ATT 10 μM, LPS 1 μg/mL, 48 hours, multiplex assay, FIG. 1B
# Method: as §1, §2
# [7] = system: pulmonary arterial rings; assay: 5-HT contractile reactivity of pulmonary arterial rings with endothelium dysfunction (organ bath); parameters: species or system Wistar rats; settings: ATT 10 μM, 30 minutes preincubation
# Method: as §3, §4, §5
# At the end of the experiment, endothelial function was tested on each ring by examining the relaxation induced by carbamylcholine, a potent vascular relaxing agent (100 μM; Sigma) on 1 μM or 30 nM Phe-induced pre-constricted pulmonary arterial rings. Passive and active mechanical properties were assessed using transducer systems, coupled to IOX2 software (v2.10.8, EMKA technologies, Paris, France) in order to facilitate data acquisition and analysis. Data were then analyzed using two-way ANOVA with Bonferroni post-tests (Prism 5 v.5.01).
# Contractile responses were tested by constructing a cumulative concentration-response curve (CCRC) to 5-hydroxytryptamine [5-HT] (10 nM to 100 μM; Sigma). When indicated, tissues were preincubated during 30 minutes with ATT (10 μM), and then CCRC to 5-HT was performed in the presence or absence of the drug.
# Evaluation of the role of endothelium on ATT effect was assessed using N^ω-nitro-L-arginine methyl ester [L-NAME] (100 μM, 30 minutes preincubation; Sigma) to inhibit nitric oxide-dependent relaxation, or 3-[(3-cholamidopropyl) dimethylammonio]-1-propanesulfonate [CHAPS] (0.3% in water, perfusion before mounting; Sigma) to physically damage the endothelium.
SMILES,"loss of contractility (peak height, sarcomere shortening, maximum sarcomere departure velocity) ([1]; FIGS. 6A-C)","loss of relaxation (maximum sarcomere return velocity, decay time to 90% and 30% relaxation) ([1]; FIGS. 6D-F)",production of IL-10 [2] [%],"amplitude of relaxation, ATT vs. CHAPS+ATT ([3]; ATT 10 μM on 30 nM phenylephrine pre-constricted rings, FIG. 3)","effect of pre-treatment with L-NAME or CHAPS on the relaxation mediated by the substance ([3]; ATT 10 μM on 30 nM phenylephrine pre-constricted rings, L-NAME 100 μM or CHAPS 0.3%, FIG. 3)",hyper-reactivity of the vessel induced by 5-HT after chronic hypoxia [4],production of TNF-α vs. LPS-activated condition [5] [%],TNF-α level in LPS-activated human macrophages [6] [%],"5-HT concentration response curve and maximum efficacy in presence of ATT and CHAPS ([7]; CHAPS 0.3%, compared with normal endothelium function, FIG. 2A)","5-HT concentration response curve with L-NAME ([7]; L-NAME 100 μM, FIG. 2B)","maximum effect of 5-HT with L-NAME ([7]; L-NAME 100 μM, FIG. 2B)","relaxation under endothelium dysfunctions induced by L-NAME or CHAPS ([3]; carbamylcholine 100 μM, Phe pre-constricted rings, data not shown)"
"COc1ccc(-c2cc(=S)ss2)cc1 [ATT, 5-(4-methoxyphenyl)-3H-1,2-dithiole-3-thione]",prevent this loss of contractility,prevent the loss of relaxation,−60.3,similar,failed 1 to affect,fully abolished,−88,−51.2,not significantly different,markedly shifted,significantly reduced,
C[N+](C)(C)CCOC(N)=O.[Cl-] [carbamylcholine],,,,,,,,,,,,fully abolished
